Assay results taken from article PMC11406518, “Intranasal Administration of Bedaquiline-Loaded Fucosylated Liposomes Provides Anti-Tubercular Activity while Reducing the Potential for Systemic Side Effects” (ACS Infectious Diseases, 2024).
Values after ≈ are worked out from the molar mass of the structure shown.

Columns and labels:
[1] = cited from earlier work
[2] = estimated; cited from earlier work
[3] = tested on: mycobacterial ATP synthase; set-up: method as in PMID 20521931; details: selectivity; cited from earlier work
[4] = tested on: Mtb H37Rv in murine bone marrow-derived macrophages; test: in vitro antitubercular activity in infected murine bone marrow-derived macrophages; assay type: cell-based, Mycobacterium tuberculosis; details: primary BMDM infected with H37Rv; doses 1 and 0.1 μg/mL
[5] = set-up: method as in PMID 35112802; details: TargoSphere platform; cited from earlier work
[6] = estimated; 25 °C; cited from earlier work
[7] = tested on: H37Rv strain of Mtb; set-up: method as in PMID 22155815; details: cited from earlier work
[8] = set-up: method as in PMID 22155815, PMID 34370588; details: in vitro; cited from earlier work
[9] = set-up: method as in PMID 22155815; details: oral route; cited from earlier work
[10] = tested on: mycobacteria; details: cited from earlier work
[11] = coadministration with high-fat meals

**Q.** With COc1nc2ccc(Br)cc2cc1[C@@H](c1ccccc1)[C@@](O)(CCN(C)C)c1cccc2ccccc12 [BDQ, Bedaquiline] as the molecule, how does the bioavailability ([1]; administered orally) read?
**A.** high bioavailability

**Q.** And the median tmax ([1]; administered orally)?
**A.** ~5 h

**Q.** What about the “increase of AUC with food” value [1, 11] of the same molecule?
**A.** 2 fold

**Q.** And the “increase of Cmax with food” value [1, 11]?
**A.** 2 fold

**Q.** What about the protein binding ([1]; in vivo) of the same molecule?
**A.** > 99%

**Q.** What about the terminal elimination half-life ([1]; in vivo) of the same molecule?
**A.** 4–5 months

**Q.** And the volume of distribution ([1]; in vivo)?
**A.** 164 L

**Q.** And the logP [2]?
**A.** 7.74

**Q.** What about the “higher affinity for mycobacterial ATP synthase versus eukaryotic ATP synthase” value [3] of the same molecule?
**A.** > 20,000

**Q.** And the “reduction in CFU/mL” value [4]?
**A.** significant reductions in CFU/mL

**Q.** What about the loading capacity [5] of the same molecule?
**A.** 5–7 % of the total mass

**Q.** And the “solubility in aqueous media” value [6]?
**A.** 2 ng/mL (≈ 0.0036 µM)

**Q.** And the “minimum bactericidal concentration (MBC)” value [7]?
**A.** 0.3 µg/mL (≈ 0.54 µM)

**Q.** What about the “minimum inhibitory concentration (MIC)” value [7] of the same molecule?
**A.** 0.06 µg/mL (≈ 0.108 µM)

**Q.** With CNCCC(O)(c1cccc2ccccc12)C(c1ccccc1)c1cc2cc(Br)ccc2nc1OC (stereo not drawn) [M2, N-desmethyl-bedaquiline] as the molecule, how does the cytotoxicity and phospholipidogenesis [8] read?
**A.** higher cytotoxicity and phospholipidogenesis

**Q.** And the “AUCLung:AUCplasma ratio” value [9]?
**A.** 100–200

**Q.** And the “antimycobacterial activity, fold lower than BDQ” value [10]?
**A.** 4–6 fold

**Q.** With C[C@H]1COc2c(N3CCN(C)CC3)c(F)cc3c(=O)c(C(=O)O)cn1c23 [levofloxacin] as the molecule, how does the encapsulation efficiency [5] read?
**A.** 66–80%
